# Laboratory results reported in patent US12552747B2, “Amino acid derivative containing non-steroidal anti-inflammatory drug structure and preparation method and application thereof” (priority 2020, dated 2026).
# Marks after values point to notes of the source that are not given here.
# System: Liver cancer SK-hep1 cells
# Assay: In vitro antitumor activity test (MTT), SK-hep1
# Format: cell-based
# Details: Homo sapiens, 24 h
# Method: (§1) 13 human tumor cell lines were selected and cultured in RPMI-1640 medium (Gibco company) containing 10% inactivated fetal bovine serum, 100 U/ml penicillin and 100 U/ml streptomycin, cultured at 37° C. in a 5% CO2 incubator, and passaged once every 2 days. Using the MTT method, cells in the logarithmic growth phase were digested with 0.25% trypsin, centrifuged at 1000 r/min for 5 min, 8×10^3 cells were added to each well, and seeded in a 96-well plate, and 180 μl of cell suspension was added to each well, and a blank was set at the same time. The 96-well plate inoculated with tumor cells was placed in a carbon dioxide incubator for 24 hours, and then 20 μl of the drug was added, and an equal volume of culture medium was added to the blank control well, and the drug was divided into 8 concentrations from 50 μg/L to 0.4 μg/L. Three duplicate wells were set for each drug concentration and placed in an incubator for 24 h. 10 μl of MTT solution (5 mg/ml) was added to each well, and the culture was continued for 4 h. The supernatant was aspirated and discarded, 100 μl of dimethyl sulfoxide (DMSO) solution was added to each well, placed on a micro shaker for 10 min, and the absorbance (A value) was measured at a wavelength of 492 nm in a microplate reader, and the inhibition rate of the drug on tumor cells was calculated according to the following formula.
# (§2) In this test, the IC50 value of the compound on tumor cells was calculated by the Origin software according to the inhibition rate of the compound. AC-201 in the following table was the abbreviation of PL-AC-201, and so on.
row,SMILES,IC50
1,"CC1(C)CC(NC(=O)C(Cc2ccc(-c3ccccc3)cc2)NC(=O)c2cc3ccccc3n2Cc2ccccc2)CC(C)(C)N1 (centres unmarked) [PL-AC-15, reference compound]",26.4 nM

# System: Lung cancer H460 cells
# Assay: In vitro antitumor activity test (MTT), H460
# Format: cell-based
# Details: Homo sapiens, NCI-H460, 24 h
# Method: as §1, §2
row,SMILES,IC50
1,"CC1(C)CC(NC(=O)C(Cc2ccc(-c3ccccc3)cc2)NC(=O)c2cc3ccccc3n2Cc2ccccc2)CC(C)(C)N1 (centres unmarked) [PL-AC-15, reference compound]",22 nM

# System: Breast cancer MCF-7 cells
# Assay: In vitro antitumor activity test (MTT), MCF-7
# Format: cell-based
# Details: Homo sapiens, MCF7; Breast cancer MCF-7, MTT, 24 h
# Method: as §1, §2
row,SMILES,IC50
1,"CC1(C)CC(NC(=O)C(Cc2ccc(-c3ccccc3)cc2)NC(=O)c2cc3ccccc3n2Cc2ccccc2)CC(C)(C)N1 (centres unmarked) [PL-AC-15, reference compound]",23.2 nM

# System: Pancreatic cancer Bxpc-3 cells
# Assay: In vitro antitumor activity test (MTT), Bxpc-3
# Format: cell-based
# Details: Homo sapiens; Pancreatic cancer Bxpc-3, MTT, 24 h
# Method: as §1, §2
row,SMILES,IC50
1,"CC1(C)CC(NC(=O)C(Cc2ccc(-c3ccccc3)cc2)NC(=O)c2cc3ccccc3n2Cc2ccccc2)CC(C)(C)N1 (centres unmarked) [PL-AC-15, reference compound]",48.9 nM

# System: Liver cancer HepG-2 cells
# Assay: In vitro antitumor activity test (MTT), HepG-2
# Format: cell-based
# Details: Homo sapiens, HepG2; Liver cancer HepG-2, MTT, 24 h
# Method: as §1, §2
row,SMILES,IC50
1,"CC1(C)CC(NC(=O)C(Cc2ccc(-c3ccccc3)cc2)NC(=O)c2cc3ccccc3n2Cc2ccccc2)CC(C)(C)N1 (centres unmarked) [PL-AC-15, reference compound]",16.2 nM

# System: SK-hep1 liver tumors
# Assay: Transplanted tumor in nude mice, intraperitoneal, SK-hep1
# Format: in vivo, BALB/c nude mice
# Details: SK-hep1, 5 mg/kg i.p. once every 3 days, 8 administrations
# Method: (§3) BALB/c nude mice were used to inoculate Bel-7402, HepG-2 and SK-hep1 liver tumors according to the transplanted tumor research method under aseptic operation, and the cell density was not less than 5×10^6/ml, 0.2 ml was inoculated subcutaneously in the axilla of the right hind limb of each mouse. After the cells were inoculated, the cells were administered intraperitoneally (concentration: 5 mg/kg), once every 3 days, for a total of 8 administrations. After the 2nd day of drug withdrawal, all tumor-bearing mice were sacrificed, and their body weight, tumor weight and tumor inhibition were weighed.
SMILES,Tumor inhibition rate,Tumor weight
"CC1(C)CC(NC(=O)C(Cc2ccc(-c3ccccc3)cc2)NC(=O)c2cc3ccccc3n2Cc2ccccc2)CC(C)(C)N1 (centres unmarked) [PL-AC-15, reference compound]",60.6** %,441.5 ± 10.8 mg

# Same assay, conditions: SK-hep1 tumor-bearing BALB/c mice, 5 mg/kg i.p. once every 3 days, 8 administrations
row,SMILES,Body Weight After administration
1,"CC1(C)CC(NC(=O)C(Cc2ccc(-c3ccccc3)cc2)NC(=O)c2cc3ccccc3n2Cc2ccccc2)CC(C)(C)N1 (centres unmarked) [PL-AC-15, reference compound]",23.2 ± 0.3 g

# System: Colon cancer HT29 cells
# Assay: In vitro antitumor activity test (MTT), HT29
# Format: cell-based
# Details: Homo sapiens, HT-29, 24 h
# Method: as §1, §2
row,SMILES,IC50
1,"CC1(C)CC(NC(=O)C(Cc2ccc(-c3ccccc3)cc2)NC(=O)c2cc3ccccc3n2Cc2ccccc2)CC(C)(C)N1 (centres unmarked) [PL-AC-15, reference compound]",38.2 nM

# System: Lung cancer H1299 cells
# Assay: In vitro antitumor activity test (MTT), H1299
# Format: cell-based
# Details: Homo sapiens, NCI-H1299, 24 h
# Method: as §1, §2
row,SMILES,IC50
1,"CC1(C)CC(NC(=O)C(Cc2ccc(-c3ccccc3)cc2)NC(=O)c2cc3ccccc3n2Cc2ccccc2)CC(C)(C)N1 (centres unmarked) [PL-AC-15, reference compound]",24.4 nM

# System: Cervical cancer Hela cells
# Assay: In vitro antitumor activity test (MTT), Hela
# Format: cell-based
# Details: Homo sapiens, 24 h
# Method: as §1, §2
row,SMILES,IC50
1,"CC1(C)CC(NC(=O)C(Cc2ccc(-c3ccccc3)cc2)NC(=O)c2cc3ccccc3n2Cc2ccccc2)CC(C)(C)N1 (centres unmarked) [PL-AC-15, reference compound]",19.7 nM

# System: not listed separately
# Assay: Acute toxicity test of single administration to ICR mice
# Details: mouse, in vivo, intravenous, single tail vein injection, observed 7 days
# Method: ICR mice, 18-22 g, were raised in a common-grade animal room, fed with common feed, and ingested freely. The group distance and dose were determined after exploring the Dm and Dn of the compounds of the examples. Five concentrations of the compounds of the examples were formulated at the desired dose. The corresponding doses of drugs were injected into the tail vein according to body weight, and the blank control group was injected with normal saline. Immediately after administration, the performance and death of each animal were observed and recorded, and the possible toxic reaction or death of animals within 7 days after a single administration was observed and recorded.
row,SMILES,LD50 at 7 days
1,"CC1(C)CC(NC(=O)C(Cc2ccc(-c3ccccc3)cc2)NC(=O)c2cc3ccccc3n2Cc2ccccc2)CC(C)(C)N1 (centres unmarked) [PL-AC-15, reference compound]",23.6 mg/kg

# System: HepG-2 liver tumors
# Assay: Transplanted tumor in nude mice, intraperitoneal, HepG-2
# Format: in vivo, BALB/c nude mice
# Details: HepG-2, 5 mg/kg i.p. once every 3 days, 8 administrations
# Method: as §3
SMILES,Tumor inhibition rate,Tumor weight
"CC1(C)CC(NC(=O)C(Cc2ccc(-c3ccccc3)cc2)NC(=O)c2cc3ccccc3n2Cc2ccccc2)CC(C)(C)N1 (centres unmarked) [PL-AC-15, reference compound]",66.7** %,549.9 ± 10.2 mg

# Same assay, conditions: HepG-2 tumor-bearing BALB/c mice, 5 mg/kg i.p. once every 3 days, 8 administrations
row,SMILES,Body Weight After administration
1,"CC1(C)CC(NC(=O)C(Cc2ccc(-c3ccccc3)cc2)NC(=O)c2cc3ccccc3n2Cc2ccccc2)CC(C)(C)N1 (centres unmarked) [PL-AC-15, reference compound]",23.8 ± 1.0 g

# System: 13 human tumor cell lines
# Assay: Average IC50 over the tumor cell lines (MTT)
# Format: cell-based
# Details: mean IC50 for each tumor, read-out: AverageIC50
# Method: as §1, §2
# The ratio of the hemolytic concentration MHC of the compound to the mean IC50 for each tumor was referred to as the therapeutic index (TI). The safety of the compound was evaluated by the therapeutic index. The higher the therapeutic index, the greater the safety range of the compound.
row,SMILES,IC50
1,"CC1(C)CC(NC(=O)C(Cc2ccc(-c3ccccc3)cc2)NC(=O)c2cc3ccccc3n2Cc2ccccc2)CC(C)(C)N1 (centres unmarked) [PL-AC-15, reference compound]",32 nM

# System: human red blood cells
# Assay: Detection of hemolytic activity
# Format: cell-based
# Details: hemolytic concentration, in nM
# Method: 2-3 ml of human blood was drawn using an anticoagulant tube, thoroughly mixed, and kept at 4° C. for later use. 2 ml of blood was aspirated and added with 2-3 ml of PBS, followed by gently pipetting and centrifugation for 5 min at 1000 rpm, which was repeated 3-4 times. After the last centrifugation, PBS was aspirated, PBS was added to 40 ml (20 times the volume), and the number of blood cells at this time was 2×10^8 cells/ml. The red blood cell suspension was added to the plate (U-shaped 96-well plate), and 70 μl/well was used as a negative well. Only PBS was added to blank wells, 140 μl/well. 2 ml of the red blood cell suspension was centrifuged, PBS was discarded, 2 ml of pure water was added, mixed well, and 140 μl/well was used as a positive well. The diluted polypeptide solutions of different concentrations were added to the plate, 70 μl/well. Incubated at 37° C., 87 rpm, shaken for 2h, centrifuged for 5 min at 3000 rpm. The OD value measured by microplate reader: After centrifugation, 90 μl of supernatant was drawn and transferred to a flat-bottom 96-well plate, and the OD value at 578 nm was measured by microplate reader. ODtest-OD negative >0.1 (the first concentration that met the conditions was MHC).
row,SMILES,MHC
1,"CC1(C)CC(NC(=O)C(Cc2ccc(-c3ccccc3)cc2)NC(=O)c2cc3ccccc3n2Cc2ccccc2)CC(C)(C)N1 (centres unmarked) [PL-AC-15, reference compound]",1.6e+06 nM

# Same assay, conditions: human red blood cells, 37° C., 2h; first concentration with ODtest-OD negative >0.1
row,SMILES,MHC
1,"CC1(C)CC(NC(=O)C(Cc2ccc(-c3ccccc3)cc2)NC(=O)c2cc3ccccc3n2Cc2ccccc2)CC(C)(C)N1 (centres unmarked) [PL-AC-15, reference compound]",1000 µg/mL

# System: Liver cancer Bel-7402 cells
# Assay: In vitro antitumor activity test (MTT), Bel-7402
# Format: cell-based
# Details: Homo sapiens; Liver cancer Bel-7402, MTT, 24 h
# Method: as §1, §2
row,SMILES,IC50
1,"CC1(C)CC(NC(=O)C(Cc2ccc(-c3ccccc3)cc2)NC(=O)c2cc3ccccc3n2Cc2ccccc2)CC(C)(C)N1 (centres unmarked) [PL-AC-15, reference compound]",81.7 nM

# System: Human osteosarcoma MG63 cells
# Assay: In vitro antitumor activity test (MTT), MG63
# Format: cell-based
# Details: MG-63, 24 h
# Method: as §1, §2
row,SMILES,IC50
1,"CC1(C)CC(NC(=O)C(Cc2ccc(-c3ccccc3)cc2)NC(=O)c2cc3ccccc3n2Cc2ccccc2)CC(C)(C)N1 (centres unmarked) [PL-AC-15, reference compound]",25.8 nM

# System: Melanoma B16 cells
# Assay: In vitro antitumor activity test (MTT), B16
# Format: cell-based
# Details: 24 h
# Method: as §1, §2
row,SMILES,IC50
1,"CC1(C)CC(NC(=O)C(Cc2ccc(-c3ccccc3)cc2)NC(=O)c2cc3ccccc3n2Cc2ccccc2)CC(C)(C)N1 (centres unmarked) [PL-AC-15, reference compound]",30.5 nM

# System: Lung cancer H292 cells
# Assay: In vitro antitumor activity test (MTT), H292
# Format: cell-based
# Details: Homo sapiens, NCI-H292, 24 h
# Method: as §1, §2
row,SMILES,IC50
1,"CC1(C)CC(NC(=O)C(Cc2ccc(-c3ccccc3)cc2)NC(=O)c2cc3ccccc3n2Cc2ccccc2)CC(C)(C)N1 (centres unmarked) [PL-AC-15, reference compound]",28.3 nM

# System: Lung cancer A549 cells
# Assay: In vitro antitumor activity test (MTT), A549
# Format: cell-based
# Details: Homo sapiens, 24 h
# Method: as §1, §2
row,SMILES,IC50
1,"CC1(C)CC(NC(=O)C(Cc2ccc(-c3ccccc3)cc2)NC(=O)c2cc3ccccc3n2Cc2ccccc2)CC(C)(C)N1 (centres unmarked) [PL-AC-15, reference compound]",31.2 nM

# System: Bel-7402 liver tumors
# Assay: Transplanted tumor in nude mice, intraperitoneal, Bel-7402
# Format: in vivo, BALB/c nude mice
# Details: Bel-7402, 5 mg/kg i.p. once every 3 days, 8 administrations
# Method: as §3
SMILES,Tumor inhibition rate,Tumor weight
"CC1(C)CC(NC(=O)C(Cc2ccc(-c3ccccc3)cc2)NC(=O)c2cc3ccccc3n2Cc2ccccc2)CC(C)(C)N1 (centres unmarked) [PL-AC-15, reference compound]",61.8** %,302.9 ± 0.8 mg

# Same assay, conditions: Bel-7402 tumor-bearing BALB/c mice, 5 mg/kg i.p. once every 3 days, 8 administrations
row,SMILES,Body Weight After administration
1,"CC1(C)CC(NC(=O)C(Cc2ccc(-c3ccccc3)cc2)NC(=O)c2cc3ccccc3n2Cc2ccccc2)CC(C)(C)N1 (centres unmarked) [PL-AC-15, reference compound]",25.2 ± 1.1 g
